From ChEMBL document CHEMBL3102722, “Diarylacylhydrazones: Clostridium-selective antibacterials with activity against stationary-phase cells” (Bioorg Med Chem Lett, 2014) come the findings set out here.

The structures appear in SMILES notation. Values after ≈ are worked out from the molar mass of the structure shown. Active and inactive are the calls of the source.

For data set [1], the system named is Clostridioides difficile. Nature of the data set: Antibacterial activity against Clostridium difficile UK1 clinical isolate assessed as growth inhibition after 20 to 24 hrs. Type of data set: functional.
Data set [2] relates to Limosilactobacillus reuteri. As to the kind of experiment: Antibacterial activity against Lactobacillus reuteri ATCC 23272 assessed as growth inhibition after 20 to 24 hrs. The data set is classed as functional.
The test system of data set [3] is Bacteroides thetaiotaomicron. Nature of the data set: Antibacterial activity against Bacteroides thetaiotaomicron ATCC 29148 assessed as growth inhibition after 20 to 24 hrs. Type of data set: functional.
The subject of another data set is Clostridium perfringens. Nature of the data set: Antibacterial activity against Clostridium perfringens ATCC 13124 assessed as growth inhibition after 20 to 24 hrs. The data set is classed as functional.
A short description of data set [4]: Antibacterial activity against Clostridium difficile 630 clinical isolate assessed as growth inhibition after 20 to 24 hrs. The settings on record: Clostridioides difficile. The data set is classed as functional, Clostridioides difficile 630.
A further data set relates to Staphylococcus aureus. Nature of the data set: Antibacterial activity against Staphylococcus aureus 8325-4 assessed as growth inhibition after 20 to 24 hrs. Type of data set: functional.
For data set [5], the system named is Clostridioides difficile. As to the kind of experiment: Bactericidal activity against Clostridium difficile CD196 after 20 to 24 hrs. Type of data set: functional. The settings on record: read-out: MBC99.9.
Data set [6] has as its system Clostridioides difficile. Nature of the data set: Ratio of MBC99.9 to MIC for Clostridium difficile CD196. Type of data set: functional.
Data set [7] has as its system Clostridioides difficile. As to the kind of experiment: Antibacterial activity against Clostridium difficile VPI clinical isolate assessed as growth inhibition after 20 to 24 hrs. The data set is classed as functional.
Another data set concerns Lacticaseibacillus casei. As to the kind of experiment: Antibacterial activity against Lactobacillus casei ATCC 334 assessed as growth inhibition after 20 to 24 hrs. The data set is classed as functional.
The subject of a further data set is Enterococcus faecalis. As to the kind of experiment: Antibacterial activity against Enterococcus faecalis ATCC 47077 assessed as growth inhibition after 20 to 24 hrs. The data set is classed as functional.
The test system of data set [8] is Clostridioides difficile. As to the kind of experiment: Antibacterial activity against Clostridium difficile GC1 clinical isolate assessed as growth inhibition after 20 to 24 hrs. Type of data set: functional.
For a further data set, the system named is Escherichia coli. As to the kind of experiment: Antibacterial activity against Escherichia coli ATCC 700927 assessed as growth inhibition after 20 to 24 hrs. The data set is classed as functional.
Data set [9] concerns Clostridioides difficile. Nature of the data set: Antibacterial activity against Clostridium difficile CD196 assessed as growth inhibition after 20 to 24 hrs. Type of data set: functional.
Data set [10] relates to Clostridioides difficile. Nature of the data set: Antibacterial activity against Clostridium difficile UK6 clinical isolate assessed as growth inhibition after 20 to 24 hrs. The data set is classed as functional.
Another data set concerns Streptococcus mutans. Nature of the data set: Antibacterial activity against Streptococcus mutans ATCC 700610 assessed as growth inhibition after 20 to 24 hrs. Type of data set: functional.
The test system of the next data set is Bacteroides fragilis. Nature of the data set: Antibacterial activity against Bacteroides fragilis ATCC 25285 assessed as growth inhibition after 20 to 24 hrs. The data set is classed as functional. The settings on record: NCTC 9343.
Data set [11] relates to Clostridioides difficile. As to the kind of experiment: Antibacterial activity against Clostridium difficile 10463 clinical isolate assessed as growth inhibition after 20 to 24 hrs. The data set is classed as functional.
A further data set deals with Bifidobacterium longum. As to the kind of experiment: Antibacterial activity against Bifidobacterium longum ATCC BAA-999 assessed as growth inhibition after 20 to 24 hrs. Type of data set: functional.
Data set [12] can be described thus: Cytotoxicity against human HepG2 cells assessed as concentration required to decrease cell viability incubated for 24 hrs followed by compound washout measured after 18 hrs by resazurin dye-based assay. The settings on record: read-out: Activity. On the technique in general: Alamar Blue is a resazurin reagent that responds to reducing activity.
Data set [13] relates to Clostridioides difficile. Nature of the data set: Antibacterial activity against stationary phase of Clostridium difficile CD196 assessed as cell killing at 1 to 20 X MIC after 3 to 6 hrs. Type of data set: functional.
The subject of a further data set is FaDu. Nature of the data set: Cytotoxicity against human FADU cells assessed as concentration required to decrease cell viability incubated for 24 hrs followed by compound washout measured after 18 hrs by resazurin dye-based assay.
Data set [14] concerns Clostridioides difficile. As to the kind of experiment: Antibacterial activity against stationary phase of Clostridium difficile CD196 assessed as cell killing after 3 to 6 hrs. The data set is classed as functional.
Data set [15] relates to Clostridioides difficile. Nature of the data set: Antibacterial activity against Clostridium difficile clinical isolate assessed as growth inhibition. Type of data set: functional.

The MIC is the smallest concentration in the dilution series that meets the test's criterion for growth inhibition. Broadly, the MIC90 is the lowest concentration that inhibits either 90% of growth or 90% of the strains tested, depending on the study.

Consider `O=C(N/N=C/c1c(O)ccc2ccccc12)c1ccc(-c2ccccc2)cc1`, for which the MIC with Clostridioides difficile [1] is 1.5 µg/mL (≈ 4.09 µM); in data set [2], greater than 50 µg/mL; in data set [3] it was greater than 50 µg/mL; with Clostridium perfringens it was 3.13 µg/mL (≈ 8.54 µM); in [4], 1.5 µg/mL (≈ 4.09 µM); in the data set on Staphylococcus aureus, greater than 50 µg/mL. In addition, the minimum inhibitory concentration (MIC) with Clostridioides difficile [7] was 3 µg/mL (≈ 8.19 µM); in the data set with Lacticaseibacillus casei, greater than 50 µg/mL; with Enterococcus faecalis, greater than 50 µg/mL; with Clostridioides difficile [8], 1.5 µg/mL (≈ 4.09 µM); in the data set on Escherichia coli it was greater than 50 µg/mL; in the data set on Clostridioides difficile [9], 1.56 µg/mL (≈ 4.26 µM). For the same compound, the MIC in the data set on Clostridioides difficile [10] was 1.5 µg/mL (≈ 4.09 µM); with Streptococcus mutans, greater than 50 µg/mL; with Bacteroides fragilis it was greater than 50 µg/mL; with Clostridioides difficile [11] it was 3 µg/mL (≈ 8.19 µM); in the data set on Bifidobacterium longum, greater than 50 µg/mL. Further, the MBC in the data set on Clostridioides difficile [5] was found to be 3.13 µg/mL (≈ 8.54 µM). For the same compound, in the data set with Clostridioides difficile [6], the Ratio amounted to 2.
Turning to `CN[C@H](CC(C)C)C(=O)N[C@H]1C(=O)N[C@@H](CC(N)=O)C(=O)N[C@H]2C(=O)N[C@H]3C(=O)N[C@H](C(=O)N[C@H](C(=O)O)c4cc(O)cc(O)c4-c4cc3ccc4O)[C@H](O)c3ccc(c(Cl)c3)Oc3cc2cc(c3O[C@@H]2O[C@H](CO)[C@@H](O)[C@H](O)[C@H]2O[C@H]2C[C@](C)(N)[C@H](O)[C@H](C)O2)Oc2ccc(cc2Cl)[C@H]1O` [VANCOMYCIN], the MIC with Clostridioides difficile [1] was 1.5 µg/mL (≈ 1.04 µM); in data set [2] it was greater than 50 µg/mL; in data set [3], 12.5 µg/mL (≈ 8.63 µM); in the data set on Clostridium perfringens, no more than 0.78 µg/mL; in data set [4], 0.75 µg/mL (≈ 0.518 µM); with Staphylococcus aureus it was 3.13 µg/mL (≈ 2.16 µM). Also, the minimal inhibitory concentration (MIC) in the data set with Clostridioides difficile [7] was 1.5 µg/mL (≈ 1.04 µM); in the data set with Lacticaseibacillus casei it was greater than 50 µg/mL; in the data set with Enterococcus faecalis it was 3.13 µg/mL (≈ 2.16 µM); with Clostridioides difficile [8] it was 1.5 µg/mL (≈ 1.04 µM); in the data set with Escherichia coli, greater than 50 µg/mL; in the data set with Clostridioides difficile [9], 1 µg/mL (≈ 0.69 µM). Further, the minimum inhibitory concentration (MIC) was 0.75 µg/mL (≈ 0.518 µM) in the data set with Clostridioides difficile [10]; 1.56 µg/mL (≈ 1.08 µM) in the data set on Streptococcus mutans; 12.5 µg/mL (≈ 8.63 µM) with Bacteroides fragilis; 1.5 µg/mL (≈ 1.04 µM) with Clostridioides difficile [11]; no more than 0.78 µg/mL with Bifidobacterium longum. In data set [12], the MCC at 24 h was greater than 200 µg/mL. Moreover, the result in the data set on Clostridioides difficile [13] was inactive. Further, the Activity in the data set with FaDu is greater than 200 µg/mL.
In the case of `Cc1cc(C(=O)N/N=C/c2c(O)ccc3ccccc23)[nH]n1`, the minimal inhibitory concentration (MIC) in data set [2] is greater than 50 µg/mL; in data set [3], 25 µg/mL (≈ 84.9 µM); in the data set on Clostridium perfringens, no more than 3.13 µg/mL; with Staphylococcus aureus, greater than 50 µg/mL; with Lacticaseibacillus casei, greater than 50 µg/mL; in the data set on Enterococcus faecalis, greater than 50 µg/mL. Also, the minimal inhibitory concentration (MIC) is greater than 50 µg/mL in the data set with Escherichia coli; 3.13 µg/mL (≈ 10.6 µM) in the data set with Clostridioides difficile [9]; greater than 50 µg/mL in the data set with Streptococcus mutans; greater than 50 µg/mL in the data set on Bacteroides fragilis; greater than 50 µg/mL in the data set on Bifidobacterium longum. Moreover, in data set [12], the MCC at 24 h is greater than 100 µg/mL. Also, the MBC in the data set on Clostridioides difficile [5] stood at 3.13 µg/mL (≈ 10.6 µM). For the same compound, the Activity result was “Dose-dependent effect” with Clostridioides difficile [14] and greater than 100 µg/mL with FaDu.
In the case of `CCc1c(Cl)c(O)c(Cl)c(O)c1C(=O)O[C@H]1[C@H](O)[C@H](OC)[C@H](OC/C2=C\C=C\C[C@H](O)/C(C)=C/[C@H](CC)[C@@H](O[C@@H]3OC(C)(C)[C@@H](OC(=O)C(C)C)[C@H](O)[C@@H]3O)/C(C)=C/C(C)=C/C[C@@H]([C@@H](C)O)OC2=O)O[C@@H]1C` [FIDAXOMICIN], the minimum inhibitory concentration (MIC) in data set [2] was greater than 50 µg/mL; in data set [3], greater than 50 µg/mL; in the data set with Clostridium perfringens, no more than 0.0075 µg/mL; in the data set on Staphylococcus aureus it was 3.13 µg/mL (≈ 2.96 µM); in the data set on Lacticaseibacillus casei it was greater than 50 µg/mL; in the data set with Enterococcus faecalis, 12.5 µg/mL (≈ 11.8 µM). In addition, the MIC in the data set on Escherichia coli was greater than 50 µg/mL; with Clostridioides difficile [9], 0.18 µg/mL (≈ 0.17 µM); with Streptococcus mutans, 3.13 µg/mL (≈ 2.96 µM); in the data set on Bacteroides fragilis, greater than 50 µg/mL; with Bifidobacterium longum, no more than 0.78 µg/mL. For the same compound, the outcome in the data set on Clostridioides difficile [13] was inactive. For the same compound, in the data set on Clostridioides difficile [15], the MIC90 turned out to be 8 ng/mL (≈ 0.00756 µM).
